Values quoted from earlier work in patent publication US20220395497A1, “Cancer Treatment Using Camptothecin Derivatives” (priority 2019, published 2022).
Like-named read-outs stand apart in the source and are kept apart here. Marks after values point to notes of the source that are not given here.

Legend:
reGBM patients [1] = conditions: cited from earlier work; for Diarrhoea Grades 3-5 / Neutropenia Grades 3-4 / Thrombocytopenia Grades 3-4: reGBM, single agent
[2] = system: Colorectal cancer patients; conditions: w/5FU, LV, bolus, N = 225; cited from earlier work
[3] = system: Colorectal cancer patients; conditions: single agent, bolus, N = 223; cited from earlier work
[4] = system: Metastatic Colorectal cancer patients; conditions: previously treated, cited from earlier work
[5] = system: Recurrent Colorectal cancer patients; conditions: N = 316 across 2 studies, cited from earlier work
reGBM patients [6] = conditions: cited from earlier work
reGBM patients [7] = conditions: single agent vs Enzastaurin, N = 92, Treated = 84; cited from earlier work
reGBM patients [8] = conditions: single agent/placebo, N = 64; cited from earlier work
[9] = in vivo; cited from earlier work
[10] = system: cells in the S phase of the cell cycle; conditions: in vitro; cited from earlier work
BCBM patients = conditions: Phase 3 BEACON Study, N = 425; cited from earlier work
GBM/AA patients = conditions: single agent Phase II, N = 20 in heavily pretreated bev failures; cited from earlier work

In the case of `CC[C@@]1(O)C(=O)OCc2c1cc1n(c2=O)Cc2c-1nc1ccccc1c2/C=N/OC(C)(C)C` [Gimatecan], the “treatment-related toxicities of thrombocytopenia, leukopenia, and neutropenia, patients” value (reGBM patients [1]; Phase II trial, oral) is listed as 10-18%, the PFS6 (reGBM patients [1]; in vivo) is listed as 12% and the “Diarrhoea Grades 3-5” value (reGBM patients [1]; N = 10 High Dose) is listed as 0%. For the same compound, the “Neutropenia Grades 3-4” value (reGBM patients [1]; N = 10 High Dose) was 30%, the “Thrombocytopenia Grades 3-4” value (reGBM patients [1]; N = 10 High Dose) was 40% and the “Diarrhoea Grades 3-5” value (reGBM patients [1]; N = 10 Low Dose) was 0%. For the same compound, the “Neutropenia Grades 3-4” value (reGBM patients [1]; N = 10 Low Dose) was 0% and the “Thrombocytopenia Grades 3-4” value (reGBM patients [1]; N = 10 Low Dose) was 5%.

For `CCc1c2c(nc3ccc(OC(=O)N4CCC(N5CCCCC5)CC4)cc13)-c1cc3c(c(=O)n1C2)COC(=O)[C@]3(O)CC` [Irinotecan], the “Diarrhoea Grade 4” value [2] is given as 5%, the “Nausea Grades 3,4” value [2] is given as 16% and the “Neutropenia Grade 4” value [2] is given as 24%. The “Vomiting Grades 3,4” value [2] was 10%, the “Diarrhoea Grade 4” value [3] was 7% and the “Nausea Grades 3,4” value [3] was 16%. For the same compound, the “Neutropenia Grade 4” value [3] was 12%, the “Vomiting Grades 3,4” value [3] was 12% and the “Diarrhoea Grade 4” value ([4]; N = 304, late diarrhoea) was 14%**. The “Nausea Grades 3,4” value ([4]; N = 304) was 17%, the “Neutropenia Grade 4” value ([4]; N = 304) was 12% and the “Vomiting Grades 3,4” value ([4]; N = 304) was 12%. For the same compound, the “Diarrhoea Grade 4” value ([5]; average across 2 studies) was 22%*, the “Nausea Grades 3,4” value ([5]; average across 2 studies) was 12%* and the “Vomiting Grades 3,4” value ([5]; average across 2 studies) was 14%*. The “Neutropenia Grade 4” value [5] was 18%.

For `CC[C@@]1(O)C(=O)OCc2c1cc1n(c2=O)Cc2c-1nc1ccccc1c2CC[Si](C)(C)C` [Karenitecin], the “neutropenia and thrombocytopenia, patients” value (reGBM patients [6]; Phase I trial) is given as 13-23%, the “Diarrhoea Grades 3-5” value (reGBM patients [6]; reGBM, single agent, N = 30) is given as 3% and the “Neutropenia Grades 3-4” value (reGBM patients [6]; reGBM, single agent, N = 30) is given as 23%. The “Thrombocytopenia Grades 3-4” value (reGBM patients [6]; reGBM, single agent, N = 30) was 13%.

In the case of `O=NN(CCCl)C(=O)NC1CCCCC1` [Lomustine], the “Nausea Grades 3-5” value (reGBM patients [7]) is listed as 0%, the “Neutropenia Grades 3-4” value (reGBM patients [7]) is listed as 20% and the “Thrombocytopenia Grades 3-4” value (reGBM patients [7]) is listed as 25%. The “Diarrhoea Grades 3-5” value (reGBM patients [8]) was 2%, the “Neutropenia Grades 3-4” value (reGBM patients [8]) was 3% and the “Thrombocytopenia Grades 3-4” value (reGBM patients [8]) was 22%.

In the case of `CCc1c2c(nc3ccc(O)cc13)-c1cc3c(c(=O)n1C2)COC(=O)[C@]3(O)CC` [SN-38], the “ratio of the lactone AUC to total AUC” value [9] is listed as 0.51.

In the case of `CC[C@@]1(O)C(=O)OCc2c1cc1n(c2=O)Cc2cc3ccccc3nc2-1` [camptothecin], the “sensitivity to camptothecin-induced apoptosis, S phase cells vs cells in the G1 or G2 phase” value [10] is listed as 100 to 1,000 times.

In the case of `CC[C@@]1(O)C(=O)OCc2c1cc1n(c2=O)Cc2cc3c(CN(C)C)c(O)ccc3nc2-1` [topotecan], the “ratio of the lactone AUC to total AUC” value [9] is given as 0.37.

For Etirinotecan, the “Diarrhoea Grades 3-5” value (BCBM patients) is given as 10%, the “Nausea Grades 3-5” value (BCBM patients) is given as 4% and the “Neutropenia Grades 3-4” value (BCBM patients) is given as 10%. The “Diarrhoea Grades 3-5” value (GBM/AA patients) was 10%.
